Laboratory results as given in patent US10258635B2, “Formulations and compositions of vitamin D analogs for treating and preventing cancer and other diseases” (priority 2013, dated 2019).
Entries after “also recorded” stand apart in the source; their conditions may differ.

What was measured:
DU 145 cells = assay: Efficacy study of 25-OH-D3-3-BE in DU 145 tumor-bearing athymic nude mice (oral gavage); format: in vivo; conditions: for anti-tumor effect: mouse prostate tumor xenograft model; for average tumor volume at the end of treatment: oral gavage every third day, day 11 to 31
Procedure: Male, athymic nude mice (average weight 20 gm) were fed normal rat chow and water ad libitum. They were inoculated with DU 145 cells, grown in culture, in the flank under light anesthesia. […] Administration of the compound was done by oral gavage on every third day (when weights were determined). Treatment started on day 11 and stopped on day 31; and they were left untreated for several additional days (as shown in FIG. 26) when they were sacrificed and blood was collected.

24-OHase = assay: Message for 24-OHase in LNCaP cells; format: cell-based
MCF-7 cells = assay: Cell counting assay, MCF-7; format: cell-based; conditions: 48 hr; 10^−6 M 25-OH-D3-3-BE, 10^−7 M 1,25(OH)2D3; not serum-starved
Procedure: (§1) PZ-HPV-7 cells were grown in MCDB media containing pituitary extract, epidermal growth factor (EGF) and 1% penicillin/streptomycin. Keratinocytes were also grown in the same media with additional PG1 and insulin. PC-3, LNCaP, DU-145 cells were grown in RPMI media containing 10% fetal bovine serum (FBS) and antibiotics. MCF-7 cells were grown in DMEM media containing 10% FBS and antibiotics. LAPC-4 cells were maintained in IMEM media containing antibiotics, 1° % L-glutamine and 10 nM of R1881, a synthetic […]. MC3T3 mouse bone cells were grown in α-MEM media containing 10% FBS and antibiotics. In general, cells were grown in 35 mm dishes to 70-80% confluence and then plated into 24-well plates in respective media. After the cells grew to approximately 70% confluence, they were serum-starved for 20 hours (MCF-7, PC-3, LNCaP and DU-145 cells) followed by incubation with steroid samples. Keratinocytes and PZ-HPV-7 cells, after reaching 70% confluence, were kept in MCDB media without additives for 20 hours before treatment with steroids. In general, reagents were dissolved in ethanol (EtOH), and dilution with the media was adjusted in such a way that the concentration of EtOH was 0.1% v/v.
(§2) It should be noted that in this assay cells were not serum-starved prior to addition of the reagents, and 10^−7 M of 1,25(OH)2D3 had little effect on all the cells.

LNCaP cells = assay: Cell counting assay, LNCaP; format: cell-based; conditions: 24 hours; 10^−6 M 25-OH-D3-3-BE, 10^−7 M 1,25(OH)2D3; not serum-starved
Procedure: as §1, §2

[1] = tested on: LNCaP (androgen-sensitive prostate cancer) cells; assay: 3H-thymidine incorporation assay, LNCaP (Example 13); format: cell-based
Procedure: (§3) Antiproliferation studies of keratinocytes (normal skin), MCF-7 (breast cancer), PZ-HPV-7 (immortalized normal prostate), LNcap (androgen-sensitive prostate cancer) and PC-3 (androgen-insensitive prostate cancer) cells, treated with 10^−6M of 25-OH-D3-3-BE (AMPI-105) or 1,25(OH)2D3 (bioactive Vitamin D3 hormone) were performed with a ^3H-thymidine incorporation assay
as §1
(§4) Assays were carried out with six (6) replicates and student's t-test was employed for statistical analysis. Results are expressed relative to EtOH (100%) in FIG. 24.

[2] = tested on: keratinocytes (normal skin); assay: 3H-thymidine incorporation assay, keratinocytes; format: cell-based; conditions: 10^−6M
Procedure: as §3
as §1, with “Keratinocytes and PZ-HPV-7 cells, after reaching 70% confluence, were kept in MCDB media without additives for 20 hours before treatment with steroids. In general, reagents were dissolved in ethanol (EtOH), and dilution with the media was adjusted in such a way that the concentration of EtOH was 0.1% v/v.” left out

[3] = tested on: MCF-7 (breast cancer) cells; assay: 3H-thymidine incorporation assay, MCF-7; format: cell-based; conditions: 10^−6M
Procedure: as §3
as §1, with “Keratinocytes and PZ-HPV-7 cells, after reaching 70% confluence, were kept in MCDB media without additives for 20 hours before treatment with steroids. In general, reagents were dissolved in ethanol (EtOH), and dilution with the media was adjusted in such a way that the concentration of EtOH was 0.1% v/v.” left out

[4] = tested on: PZ-HPV-7 (immortalized normal prostate) cells; assay: 3H-thymidine incorporation assay, PZ-HPV-7; format: cell-based
Procedure: as §3
as §1, with “Keratinocytes and PZ-HPV-7 cells, after reaching 70% confluence, were kept in MCDB media without additives for 20 hours before treatment with steroids. In general, reagents were dissolved in ethanol (EtOH), and dilution with the media was adjusted in such a way that the concentration of EtOH was 0.1% v/v.” left out

[5] = tested on: PC-3 (androgen-insensitive prostate cancer) cells; assay: 3H-thymidine incorporation assay, PC-3; format: cell-based; conditions: 10^−6 M; for growth reduction of PC-3 cells: relative to EtOH
Procedure: as §3, §1, §4

MC3T3 mouse bone cells = assay: Cell counting assay, MC3T3; format: cell-based; conditions: 48 hr; 10^−6 M 25-OH-D3-3-BE, 10^−7 M 1,25(OH)2D3; not serum-starved
Procedure: as §1, §2

LAPC-4 cells = assay: Cell counting assay, LAPC-4; format: cell-based; conditions: 24 hours; 10^−6 M 25-OH-D3-3-BE, 10^−7 M 1,25(OH)2D3; not serum-starved
Procedure: as §1, §2

[6] = tested on: DU-145 Prostate Cancer Cells; assay: Cell-counting antiproliferative evaluation, DU-145; format: cell-based, human; conditions: Calcitrol 10^−6M, AMPI-107 10^−5M; dosed days 1, 3, 5, counted 7th day
Procedure: (§5) Prostate cancer cells (DU-145, PC-3 and LNCaP) were grown in DMEM medium with 10% FBS, antibiotics, etc. […] Results are designated as percentage of ethanol control.

[7] = tested on: DU 145 human androgen-insensitive prostate cancer cells; assay: AMPI-107 in DU 145 xenograft, p.o. administration (Example 17); format: in vivo
Excerpt: (§6) Male, athymic mice (average weight 20 gm) were fed normal rat chow and water ad libitum. They were inoculated with DU 145 human androgen-insensitive prostate cancer cells (10^6), grown in culture in the flank under light anesthesia. […] Treatment started on day 11 and stopped on day 30; and they were left untreated for two (2) additional days when they were sacrificed.

[8] = tested on: DU 145 human androgen-insensitive prostate cancer cells; assay: AMPI-107 in DU 145 xenograft, i.p. administration (Example 17); format: in vivo
Excerpt: as §6

[9] = tested on: LNCaP prostate cancer cells; assay: Cell-counting antiproliferative evaluation, LNCaP; format: cell-based; conditions: Calcitrol 10^−6M, AMPI-107 10^−5M; dosed days 1, 3, 5, counted 7th day
Procedure: as §5

DU-145 cells = assay: 3H-thymidine incorporation assay in DU-145 cells; format: cell-based, human; conditions: for anti-proliferative effect in DU-145 cells: 10^−6M, separate experiment
[10] = tested on: Normal prostate WPMY cells; assay: Viability testing by MTT reduction in normal prostate cells; format: cell-based; conditions: 24 hours; AMPI-107 1 and 10 μM, Calcitrol 1 μM
Procedure: MTT is reduced in metabolically active cells, in part by the action of dehydrogenase enzymes, to generate reducing equivalents such as NADH and NADPH. The resulting intracellular purple formazan can be solubilized and quantified by spectrophotometry. After 5 minutes at room temperature, absorbances in plates were measured using a plate analyzer set for in dual wavelength comparisons at wavelength of 540 nm with a reference wavelength of 620 nm.

[11] = tested on: RCC 54 kidney cancer cells; conditions: 7.5×10^−7 to 10^−6M
Procedure: In a typical assay cells were grown to 50-60% confluence in 24-well plates in respective media containing 5% FBS, and serum starved for 20 hours, followed by treatment with various agents (in 0.1% ethanolic solution) or ethanol (vehicle) in serum-containing medium for 16 hours. After the treatment media was removed from the wells and replaced with media containing ^3H-thymidine (Sigma, 0.1 μCi) per well, and the cells were incubated for 3 hours at 37° C. After this period media was removed by aspiration and the cells were washed thoroughly (3×0.5 ml) with PBS. Ice-cold 5% perchloric acid solution (0.5 ml) was added to each well and the cells were incubated on ice for 20 minutes. After this incubation, perchloric acid was removed by aspiration, replaced with 0.5 ml of fresh perchloric acid solution and the cells were incubated at 70° C. for 20 minutes. Solution from each well was mixed with scintillation fluid and counted in a liquid scintillation counter. There were eight (8) wells per sample; statistics was carried out by Student's t test.

[12] = tested on: PC-3 Prostate Cancer Cells; assay: Cell-counting antiproliferative evaluation, PC-3; format: cell-based; design: dose or concentration left out as unconfirmed; conditions: dosed days 1, 3, 5, counted 7th day
Procedure: as §5

normal kidney cells = assay: 3H-thymidine incorporation assay in normal kidney cells; format: cell-based; conditions: 10^−6M
[13] = tested on: DU-145 human prostate cancer cells; assay: DU-145 xenograft efficacy, p.o. administration (Example 11); format: in vivo, nude mice; conditions: p.o.; calcitriol 0.5 μg/kg and 1.0 μg/kg; AMPI-109 0.5 μg/kg

25-hydroxyvitamin D3-3-epoxide [AMPI-106]
anti-tumor effect (DU 145 cells): strong anti-tumor activity

C=C1/C(=C\C=C2/CCC[C@]3(C)[C@@H]([C@H](C)/C=C/[C@@H](O)C4(C(=O)OCCCC)CC4)CC[C@@H]23)C[C@@H](O)C[C@@H]1O [ZK 159222]
message for 24-OHase (24-OHase): obliterated

C=C1CCC(OC(=O)CBr)CC1=CC=C1CCCC2(C)C1CCC2C(C)CCCC(C)(C)O (stereo not drawn) [AMPI-105, 25-hydroxyvitamin D3-3-bromoacetate]
number of MCF-7 cells (MCF-7 cells): affected to a much lesser extent | number of LNCaP cells (LNCaP cells): sharply reduced number of cells | cytotoxicity to LNCaP cells ([1]; 10^−6 M, phase contrast microscope): cytotoxic | growth inhibition of LNCaP cells ([1]; 10^−6 M, relative to EtOH): ~98% | growth inhibition in keratinocytes relative to 1,25(OH)2D3 [2]: stronger than an equivalent amount of 1,25 (OH)2D3 | average tumor volume at the end of treatment (DU 145 cells; 0.25 μg/kg): 650 mm^3 | average tumor volume at the end of treatment (DU 145 cells; 0.5 μg/kg): 500 mm^3 | gross weight of the animals versus untreated (DU 145 cells; during and after the treatment): no significant difference | anti-tumor effect (DU 145 cells): strong anti-tumor activity | anti-tumor effect (DU 145 cells; listed as 25-OH-D3-3-BE): dose-dependent anti-tumor effect | growth inhibition in MCF-7 cells relative to 1,25(OH)2D3 [3]: weaker than 1,25(OH)2D3 | growth inhibition of PZ-HPV-7 cells ([4]; 10^−6 M, relative to EtOH): approximately 50% | cytotoxicity to PC-3 cells ([5]; phase contrast microscope): cytotoxic | growth reduction of PC-3 cells [5]: 90% | number of MC3T3 cells (MC3T3 mouse bone cells): affected to a much lesser extent | number of LAPC-4 cells (LAPC-4 cells): sharply reduced number of cells

Vitamin D3-3-epoxide [AMPI-107]
growth inhibitory activity in DU-145 cells [6]: approximately similar growth inhibitory activity; also recorded: equally effective | efficacy on tumor size ([7]; 1 mg/kg p.o. every third day, day 11 to 30): strongly reduced tumor size | toxicity (body weight) ([7]; p.o., hormone 0.5 and 1.0 μg/kg, MPI 107 1 mg/kg): completely non-toxic | efficacy on tumor size ([8]; 1 mg/kg i.p. every third day, day 11 to 30): strongly reduced tumor size | toxicity (body weight) ([8]; i.p., hormone 0.5 and 1.0 μg/kg, MPI 107 1 mg/kg): completely non-toxic | growth inhibition of LNCaP cells [9]: strongly inhibited the growth and significantly stronger effect and more

C=C1CC[C@H](O)C/C1=C/C=C1\CCC[C@]2(C)[C@@H]([C@H](C)CCCC(C)(C)O)CC[C@@H]12 [25-OH-D3, 25-hydroxyvitamin D3, reference compound]
growth reduction of PC-3 cells [5]: marginal antiproliferative effect

C=C1/C(=C\C=C2/CCC[C@]3(C)[C@@H]([C@H](C)/C=C/C=C/C(O)(CC)CC)CC[C@@H]23)C[C@@H](O)C[C@@H]1O [EB-1089, reference compound]
anti-proliferative effect in DU-145 cells (DU-145 cells): failed to produce any discernible anti-proliferative effect

C=C1/C(=C\C=C2/CCC[C@]3(C)[C@@H]([C@H](C)CCCC(C)(C)O)CC[C@@H]23)C[C@@H](O)C[C@@H]1O [calcitriol, 1,25-dihydroxyvitamin D3, reference compound]
growth inhibitory activity in DU-145 cells [6]: approximately similar growth inhibitory activity | cell metabolism (MTT reduction) [10]: slightly, but significantly reduce cell metabolism | number of MCF-7 cells (MCF-7 cells): little effect | reduction of proliferation of RCC 54 kidney cancer cells [11]: did not have any statistically different impact | growth inhibition of PC-3 cells [12]: strongly inhibited the growth | antiproliferative effect in DU-145 cells (DU-145 cells; 2.5×10^−7M to 10^−6M, 20 hours): no effect | anti-proliferative effect in DU-145 cells (DU-145 cells): failed to produce any discernible anti-proliferative effect | number of LNCaP cells (LNCaP cells): little effect | impact on normal kidney cells versus control (normal kidney cells): neither Calcitriol nor AMPI-109 had any statistically different impact | toxicity (body weight) ([7]; mouse, in vivo, po, 1 mg/kg): clearly toxic as evidenced by considerable loss of body weight | toxicity (body weight) ([8]; mouse, in vivo, ip, 1 mg/kg): clearly toxic as evidenced by considerable loss of body weight | inhibition at 1 µM ([1]; Homo sapiens, LNCaP, read-out: growth inhibition of LNCaP cells): ~60% | growth inhibition of LNCaP cells [9]: strongly inhibited the growth | inhibition at 1 µM ([4]; Prostate cell, read-out: growth inhibition of PZ-HPV-7 cells): ~65% | growth reduction of PC-3 cells [5]: 70% | body weight [13]: significant loss in body weight | message for 24-OHase (24-OHase): up regulated | number of MC3T3 cells (MC3T3 mouse bone cells): little effect | number of LAPC-4 cells (LAPC-4 cells): little effect
